# Patent US20250206714A1, “COMPOSITIONS AND METHODS FOR TREATMENT OF INFLAMMATORY DISEASES” (Invea Therapeutics, Inc., priority 2022, published 2025)
# Entries after “also recorded” stand apart in the source; their conditions may differ.
# How the values were obtained:
# [1] = Metabolic stability assay in human liver microsomes in the presence of specific cytochrome P450 inhibitors (arm without inhibitor, summary statements)
# IL-1β [2] = assay: LPS+ATP-induced model of inflammasome activation, plasma IL-1β by ELISA; format: in vivo, Balb/c mice; conditions: for % IL-1 β inhibition: mice plasma
# Method: The procedures detailed here can be utilized for testing all compounds of the disclosure. The example utilizes LPS+ATP-induced model of inflammasome activation in 8-10 weeks old male Balb/c mice for in vivo testing.
# 8-10 weeks old male Balb/c mice were challenged by intraperitoneal (i.p.) injection of 200 μg/Kg (0.2 μg/g) LPS at t=0 hr, followed by i.p. injection of 5 mM solution of ATP at t=2 hr (2 h after LPS challenge). The compound of disclosure being tested for inhibitory activity (such as Compound 6) was administered both via intraperitoneal and oral route at −1 hr. Different doses of the compound of the disclosure were given to the mice […] as shown below.
# MCC950, a specific small molecule inhibitor of NLRP3 inflammasome was used as a positive control to enable comparison of inhibitory activity of the compounds of the disclosure along with a known inhibitor. 2.5 hours after the LPS priming (or 0.5 hours after ATP administration), blood was collected via retro-orbital bleeding in heparinized blood collection tubes. Blood was centrifuged for 5 minutes at 10,000 rpm in a refrigerated centrifuge to obtain plasma. Separated plasma was used for cytokine assessment by ELISA. The standard curve (OD VS concentration) for IL-1β was also plotted and used to determine the IL-1β concentration for the OD values. The percentage of inhibition of IL-1β was calculated using the formula: […]
# THP-1 cells = assay: Cell viability by propidium iodide staining; format: cell-based; conditions: at 10 μM; with respect to DMSO control
# Method: (§1) Human monocytic THP-1 cells were treated with phorbol 12-myristate 13 acetate (PMA) (100 nM) overnight to differentiate monocytic cells into macrophages. Then, after 24 hours of rest, the differentiated cells were incubated with test compounds for 12 hours at concentrations 0.01, 0.1, 1, 10, 30, and 50 μM. Cells were then washed once with PBS and primed with E. coli LPS (0.1 μg/ml) for 4 h followed by stimulation with ATP (5 μM) for an additional 30 min. The cell culture supernatants were then collected and OD values for IL-1β levels were measured by ELISA. The standard curve (OD VS concentration) for IL-1β was also plotted and used to determine the IL-1β concentration for the OD values. The percentage of inhibition of IL-1β was calculated using the formula: […]
# (§2) The percentage IL-1β inhibition at different compound concentrations were plotted in a sigmoid curve and IC50 values were interpolated in Graphpad Prism. Cell death was evaluated by propidium iodide staining and OD was measured at 490 nm. Cell viability was estimated with respect to DMSO control.
# CYP 3A4 = CYP 3A4 (Homo sapiens, UniProt P08684); assay: Metabolic stability in human liver microsomes with CYP 3A4 inhibitor Ketoconazole; conditions: 1 μM + Ketoconazole (20 μM)
# [3] = Solubility analysis (kinetic method, PBS pH 7.4); format: physicochemical; conditions: phosphate buffered saline, aqueous buffer, kinetic from dmso stock, phosphate buffer saline (pH-7.4)
# Method: Seven level calibration standards (i.e., 1, 5, 10, 50, 100, 200 and 300 μM) of the test compound were prepared from 20 mM primary stock solution in DMSO. An aliquot of 198 μL of PBS (pH-7.4) was dispensed into duplicate wells of a multiscreen solubility filter plate. Subsequently, 2 μL of test compound solution from 20 mM primary stock solution was added to give a final concentration of 200 μM, the plate was covered and shaken at 150 rotations per minute for 90 minutes. At the end of 90 minutes, samples were filtered using MultiScreen HTS vacuum Manifold assembly and the filtrates were collected into the acceptor plate. An aliquot of 150 μL of filtrate from the above 96-well acceptor plate were transferred into HPLC vials and analyzed by HPLC-PDA. Solubility was determined by comparing the absorbance of test/reference compound against the respective DMSO calibration curve.
# CYP2D6 = biological target: T1, CYP2D6 (Homo sapiens, UniProt P10635); assay: Metabolic stability in human liver microsomes with CYP 2D6 inhibitor Quinidine; format: in vitro ADME; conditions: 1 μM + Quinidine (20 μM)
# T1 construct: The experiment was conducted in human liver microsomes; from tissue; host or cells: human liver microsomes
# CYP 2C9 = biological target: T2, CYP 2C9 (Homo sapiens, UniProt P11712); assay: Metabolic stability in human liver microsomes with CYP 2C9 inhibitor Sulfaphenazole; format: in vitro ADME; conditions: 1 μM + Sulfaphenazole (20 μM)
# T2 construct: The experiment was conducted in human liver microsomes; from tissue; host or cells: human liver microsomes
# IL-1β [4] = assay: In vitro inhibition of production of IL-1β in PMA-differentiated THP-1 cells (LPS + ATP, ELISA); format: cell-based, Human; conditions: THP-1 derived macrophages
# Method: The procedures detailed here can be utilized for testing all compounds of the disclosure.
# as §1, §2
# [5] = human liver microsomes, 1 μM, no inhibitor
# [6] = human, human liver microsomes, pH 7.4
# T2 sequence (P11712 whole entry): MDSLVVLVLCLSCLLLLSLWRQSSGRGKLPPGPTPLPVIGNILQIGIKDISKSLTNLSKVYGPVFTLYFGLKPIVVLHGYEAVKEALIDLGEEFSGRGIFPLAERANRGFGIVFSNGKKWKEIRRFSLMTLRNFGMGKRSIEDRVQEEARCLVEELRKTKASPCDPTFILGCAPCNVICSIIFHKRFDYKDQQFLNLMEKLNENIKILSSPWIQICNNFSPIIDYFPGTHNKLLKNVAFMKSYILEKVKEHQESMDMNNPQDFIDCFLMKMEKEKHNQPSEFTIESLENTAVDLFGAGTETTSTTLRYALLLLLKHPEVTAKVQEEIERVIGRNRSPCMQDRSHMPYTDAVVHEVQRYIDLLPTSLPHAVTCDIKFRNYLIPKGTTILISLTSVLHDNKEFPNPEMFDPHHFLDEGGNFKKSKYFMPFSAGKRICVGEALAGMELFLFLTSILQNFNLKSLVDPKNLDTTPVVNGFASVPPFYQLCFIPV
# Chain of CYP 3A4 (P08684 whole entry): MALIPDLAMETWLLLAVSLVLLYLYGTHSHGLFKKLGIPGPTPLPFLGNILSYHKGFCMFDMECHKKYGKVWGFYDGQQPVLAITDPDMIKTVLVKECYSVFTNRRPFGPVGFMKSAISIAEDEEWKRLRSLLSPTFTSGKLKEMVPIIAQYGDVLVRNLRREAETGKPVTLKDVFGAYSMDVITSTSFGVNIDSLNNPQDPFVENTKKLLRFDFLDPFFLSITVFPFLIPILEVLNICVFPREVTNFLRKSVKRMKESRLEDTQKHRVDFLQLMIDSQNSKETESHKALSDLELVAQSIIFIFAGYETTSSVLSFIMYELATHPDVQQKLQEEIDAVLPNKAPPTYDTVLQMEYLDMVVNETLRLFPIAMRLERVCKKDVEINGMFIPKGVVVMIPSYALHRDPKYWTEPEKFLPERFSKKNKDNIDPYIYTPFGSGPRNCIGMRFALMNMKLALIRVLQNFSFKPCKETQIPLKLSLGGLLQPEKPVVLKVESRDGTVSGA
# T1 sequence (P10635 whole entry): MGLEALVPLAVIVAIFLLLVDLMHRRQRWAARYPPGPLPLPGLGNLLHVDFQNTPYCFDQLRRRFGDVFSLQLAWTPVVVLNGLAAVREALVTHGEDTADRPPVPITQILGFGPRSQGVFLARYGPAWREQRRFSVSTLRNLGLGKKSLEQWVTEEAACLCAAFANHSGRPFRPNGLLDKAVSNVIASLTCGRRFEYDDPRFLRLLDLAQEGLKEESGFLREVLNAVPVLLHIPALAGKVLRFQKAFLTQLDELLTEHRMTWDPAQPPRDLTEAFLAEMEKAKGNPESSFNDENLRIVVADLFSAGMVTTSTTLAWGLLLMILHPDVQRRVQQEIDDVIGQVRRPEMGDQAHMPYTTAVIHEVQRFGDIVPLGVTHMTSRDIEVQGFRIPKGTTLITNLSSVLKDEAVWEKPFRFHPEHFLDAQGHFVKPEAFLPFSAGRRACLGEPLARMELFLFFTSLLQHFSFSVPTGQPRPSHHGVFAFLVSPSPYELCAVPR
smiles,measurement,setting,value
"O=C1Nc2ccccc2N(C(=O)CCl)c2ccc(F)cc21 [Compound 6, 5-(2-chloroacetyl)-2-fluoro-5,10-dihydro-11H-dibenzo[b,e][1,4]diazepin-11-one]",stability in human liver microsomes (in words),[1]; human liver microsomes,medium to highly stability
same,degradation,"[1]; human liver microsomes, in presence of specific CYP inhibitors",40-45%
same,% rem @ 5 min,[1]; [5],93.5%
same,% rem @ 15 min,[1]; [5],92.9%
same,% rem @ 30 min,[1]; [5],91.3%
same,% rem @ 45 min,[1]; [5],67.8%
same,half-life at 1 µM,[1]; [6],1.6 h
same,microsomal CLint at 1 μM,[1]; [6],14.4 µL/min/mg
same,degradation,"[1]; incubated in human liver microsomes, no inhibitor",~35%
same,% IL-1 β inhibition,"IL-1β [2]; 1 mg/kg, Intraperitoneal",52%
same,% IL-1 β inhibition,"IL-1β [2]; 10 mg/kg, Intraperitoneal",79%
same,% IL-1 β inhibition,"IL-1β [2]; 10 mg/kg, Oral",46%
same,"plasma IL-1β levels under in vivo conditions (FIG. 4, in words)","IL-1β [2]; escalating doses, LPS+ATP mice model",dose dependent reduction of IL-β; also recorded: dose dependent decrease in IL-1β levels
same,cell viability,THP-1 cells,99%
same,% rem @ 5 min,CYP 3A4,81.9%
same,% rem @ 15 min,CYP 3A4,81.5%
same,% rem @ 30 min,CYP 3A4,61.8%
same,% rem @ 45 min,CYP 3A4,52.9%
same,solubility at 90 min,[3],> 200 µM
same,% rem @ 5 min,CYP2D6,80.8%
same,% rem @ 15 min,CYP2D6,67.3%
same,% rem @ 30 min,CYP2D6,57.4%
same,% rem @ 45 min,CYP2D6,60.1%
same,half-life at 1 µM,"CYP2D6; pH 7.4, with quinidine 20 µM",1.07 h
same,microsomal CLint at 1 μM,"CYP2D6; pH 7.4, with quinidine 20 µM, read-out: mCLint",21.6 µL/min/mg
same,% rem @ 5 min,CYP 2C9,69.7%
same,% rem @ 15 min,CYP 2C9,63.3%
same,% rem @ 30 min,CYP 2C9,73.8%
same,% rem @ 45 min,CYP 2C9,54.3%
same,half-life at 1 µM,"CYP 2C9; pH 7.4, with Sulfaphenazole 20 μM",1.28 h
same,microsomal CLint at 1 μM,"CYP 2C9; pH 7.4, with Sulfaphenazole 20 μM, read-out: mCLint",18 µL/min/mg
same,"IL-1β levels under in vitro conditions (FIG. 3, percentage of cytokine inhibition against concentration)",IL-1β [4],dose dependent decrease in IL-1β levels
